Experimental data published in paper PMC11833175, “Synthesis, characterization, antimicrobial, cytotoxic and carbonic anhydrase inhibition activities of multifunctional pyrazolo-1,2-benzothiazine acetamides” (Beilstein Journal of Organic Chemistry, 2025).
Values after ≈ are worked out from the molar mass of the structure shown. Like-named read-outs stand apart in the source and are kept apart here. Each block holds one compound with its values, some of them ahead of it.

How the values were obtained:
[1] = test system: Escherichia coli (ATCC 8739); experiment: Microbroth single-dose antimicrobial assay, E. coli; format: cell-based; conditions: E. coli ATCC 8739, value (SD); for percent survival at 125 µg/mL: ATCC8739, single dose 125 μg/mL
Protocol: (§1) Microbroth single dose antimicrobial assays were performed against different pathogens including susceptible Staphylococcus aureus (ATCC 25923), Escherichia coli (ATCC 8739), and Candida albicans (ATCC 90027). Pathogens were treated with 125 μg/mL of tested compounds in duplicate.
(§2) The antimicrobial evaluation of the targeted compounds was carried out against five different pathogens including Staphylococcus aureus (susceptible, ATCC 25923; methicillin-resistant, ATCC BAA-41; multidrug-resistant, ATCC BAA-44), Escherichia coli ATCC 8739, and Candida albicans ATCC 90027. Reference antibiotics and final concentrations used as positive controls in these experiments were kanamycin (susceptible S. aureus, 50 μg), vancomycin (methicillin and multidrug-resistant S. aureus, 25 μg), ampicillin (E. coli, 50 μg), and amphotericin B (C. albicans, 25 μg). The final concentration of the tested compounds was 125 μg/mL for microbroth single-dose assays. Dimethyl sulfoxide was used at a final concentration of 0.1% as negative control. […] American type culture collection (ATCC, Manassas, VA, USA) has provided all microbial strains used in above experiments.
(§3) Antimicrobial Single-dose assay for compounds 7(a-n) against
(§4) S. aureus E. coli C. albicans
(§5) Figure S43: Graph showing results of antimicrobial single-dose microbroth assays of compounds 7a–n, dose of tested compounds = 125 μg/mL, control antibiotic s used: kanamycin = 50 μg/mL (Staphylococcus aureus ATCC 25923), ampicillin = 50 μg/mL (Escherichia coli ATCC 8739), and amphotericin B = 25 μg/mL (Candida albicans ATCC 90027). Dimethylsulfoxide ( DMSO) was used as the negative control at 1.25% […]
(§6) Table S1: Results of single-dose antimicrobial and cytotoxic assays for compounds 7a–n; dosage of tested compounds = 125 μg/mL; antibiotic control dosage (kanamycin = 50 μg/mL (Staphylococcus aureus ATCC 25923), ampicillin = 50 μg/mL (Escherichia coli ATCC 8739), and amphotericin B = 25 μg/mL (Candida albicans ATCC 90027).
(§7) For cytotoxic assays, dosage of tested compounds = 10 μM; dosage of mensacarcin […]
(§8) Percent survival / % Cell viability
(§9) Samples S. aureus E.coli (SD) C. albicans (SD) HCT-116 […]

[2] = target: human carbonic anhydrase CA I (Homo sapiens, UniProt P00915); experiment: hCA inhibition, stopped-flow CO2 hydration method, CA I
Protocol: (§15) In vitro assessment of all targeted pyrazolobenzothiazine scaffolds for human carbonic anhydrase (hCA) inhibition was performed adopting a stopped-flow CO2 hydration method. The enzyme inhibition assays were carried out for four types of human CA isoforms: CA I, CA II, CA IX, and XII. […] Reason for the selection of these CA isoforms was to develop a comparative relationship for inhibition selectivity between CAs (IX, XII) attributed to tumour/cancer and other CAs (I, II). […] Analyses were carried out in-house using recombinant enzymes as described.

[3] = target: human carbonic anhydrase CA II (Homo sapiens, UniProt P00918); experiment: hCA inhibition, stopped-flow CO2 hydration method, CA II; conditions: mean from three assays, errors ±5–10%
Protocol: as §15

[4] = target: human carbonic anhydrase CA IX (Homo sapiens, UniProt Q16790); experiment: hCA inhibition, stopped-flow CO2 hydration method, CA IX; conditions: mean from three assays, errors ±5–10%
Protocol: as §15

[5] = target: human carbonic anhydrase CA XII (Homo sapiens, UniProt O43570); experiment: hCA inhibition, stopped-flow CO2 hydration method, CA XII; conditions: mean from three assays, errors ±5–10%
Protocol: as §15

[6] = test system: Staphylococcus aureus (ATCC 25923); experiment: Microbroth single-dose antimicrobial assay, susceptible S. aureus; format: cell-based; conditions: single dose 125 μg/mL; for percent survival of S. aureus at 125 µg/mL: Staphylococcus aureus, ATCC25923, S. aureus ATCC 25923, value (SD); for antibacterial activity against susceptible S. aureus (in words): duplicate
Protocol: as §1, §2, §3, §4, §5, §6, §7, §8, §9

[7] = test system: Candida albicans (ATCC 90027); experiment: Microbroth single-dose antimicrobial assay, C. albicans; format: cell-based; conditions: C. albicans ATCC 90027, value (SD); for percent survival at 125 µg/mL: ATCC90027, single dose 125 μg/mL
Protocol: as §1, §2, §3, §4, §5, §6, §7, §8, §9

[8] = test system: susceptible S. aureus (ATCC 25923); experiment: Microbroth dilution assay (MIC90), susceptible S. aureus; format: cell-based, Staphylococcus aureus; conditions: for MIC90: Staphylococcus aureus, ATCC25923, 90% growth inhibition
Protocol: (§10) Microbroth dilution assays were performed for the determination of MIC (minimum inhibitory concentration, MIC90) values for compounds 7b and 7h against three different strains of Staphylococcus aureus: susceptible (ATCC 25923), methicillin-resistant (ATCC BAA-41), and multidrug-resistant (ATCC BAA-44).
as §2

[9] = test system: methicillin-resistant S. aureus (ATCC BAA-41); experiment: Microbroth dilution assay (MIC90), methicillin-resistant S. aureus; format: cell-based, Staphylococcus aureus; conditions: methicillin-resistant S. aureus ATCC BAA-41, 90% growth inhibition; for MIC90: Staphylococcus aureus, ATCC BAA-41 / MRSA, read-out: MIC90 MRSA
Protocol: as §10, §2

[10] = test system: multidrug-resistant S. aureus (ATCC BAA-44); experiment: Microbroth dilution assay (MIC90), multidrug-resistant S. aureus; format: cell-based, Staphylococcus aureus; conditions: multidrug-resistant S. aureus ATCC BAA-44, 90% growth inhibition; for MIC90: Staphylococcus aureus, ATCCBAA44, read-out: MIC90 MDRSA
Protocol: as §10, §2

[11] = Single-dose MTT cell viability assay; format: cell-based, human; conditions: human, HCT-116 cells (ATCC CCL-247), 48 h, 0.1% DMSO control = 100%, value (SD)
Protocol: (§11) Single-dose MTT assays were performed for compounds 7a–n against the human colon cancer mammalian cell line (HCT-116, ATCC CCL-247) for evaluating their inhibition of mammalian cell metabolism. Solutions of the tested compounds were prepared in DMSO and cancer cells were treated with 10 μM doses of compounds using the apoptosis inducing standard mensacarcin (10 μM) as a positive control.
(§12) Single-dose MTT assays were performed for compounds 7a–n with the human colon cancer mammalian cell line (HCT-116, ATCC CCL-247) for evaluating the compounds’ inhibitory effects on cell viability. Stock solutions of compounds were prepared in DMSO and cancer cells were treated with 10 μM doses of each compound and mensacarcin (10 μM) as a positive control. MTT in 1X PBS was added for a final concentration of 0.5 mg/mL 48 hours post compound addition to each well. Post incubation at 37 °C was carried out for 2 h. After the removal of the growth media, purple formazan metabolic product was dissolved in DMSO. A Biotek Synergy reader (96-well plate) was used to take absorbance of all samples at 550 nm. Cell viability was calculated as the ability of the metabolically active cells to reduce tetrazolium salt MTT [3-(4,5-dimethylthiazolyl-2)-2,5-diphenyltetrazolium bromide]. Control metabolic activity shown by cells treated with 0.1% DMSO was set to 100% cell growth. […]
as §7, §8, §9
(§13) HCT-116 (Human Colorn cancer cell line) Single -dose assay for […]
(§14) Figure S44: Graph showing cell viability of compounds 7a–n against human colon carcinoma cell line (HCT-116, ATCC CCL-247), dose of tested compounds = 10 μM, dose of positive control (mensacarcin) = 10 μM.

[12] = test system: human colon cancer cell line HCT-116 (ATCC CCL-247); experiment: Single-dose MTT cell viability assay; format: cell-based; conditions: 10 μM
Protocol: as §11, §12, §7, §8, §9, §13, §14

[13] = read-out: Ki for targeted CAs, I, mean from three assays, errors ±5–10%
[14] = read-out: Ki for targeted CAs, II
[15] = read-out: Ki for targeted CAs, IX
[16] = read-out: Ki for targeted CAs, XII

Chain of human carbonic anhydrase CA XII (O43570 25-354): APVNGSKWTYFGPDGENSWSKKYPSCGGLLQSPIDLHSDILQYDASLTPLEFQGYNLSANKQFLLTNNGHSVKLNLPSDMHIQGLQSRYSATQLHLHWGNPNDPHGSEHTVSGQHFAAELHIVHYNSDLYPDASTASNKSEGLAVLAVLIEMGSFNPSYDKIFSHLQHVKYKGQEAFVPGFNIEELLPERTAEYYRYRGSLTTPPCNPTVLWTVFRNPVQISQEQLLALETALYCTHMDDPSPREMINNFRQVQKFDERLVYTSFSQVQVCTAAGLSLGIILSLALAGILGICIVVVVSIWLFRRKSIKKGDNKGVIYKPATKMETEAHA
Chain of human carbonic anhydrase CA I (P00915 whole entry): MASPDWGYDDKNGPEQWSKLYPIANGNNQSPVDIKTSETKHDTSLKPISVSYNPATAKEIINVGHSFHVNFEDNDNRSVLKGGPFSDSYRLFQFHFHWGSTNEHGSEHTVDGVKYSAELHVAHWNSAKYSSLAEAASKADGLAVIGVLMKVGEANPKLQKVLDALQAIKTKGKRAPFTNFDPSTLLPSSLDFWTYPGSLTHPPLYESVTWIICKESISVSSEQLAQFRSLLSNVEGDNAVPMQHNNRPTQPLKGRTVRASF

Structure (SMILES): CC1(C)S[C@@H]2[C@H](NC(=O)[C@H](N)c3ccccc3)C(=O)N2[C@H]1C(=O)O [Ampicillin, ampicillin, reference compound]
percent survival at 50 µg/mL ([1]; ATCC8739, antibiotic control 50 μg/mL): 4.16%

Structure (SMILES): CN1c2c(O)nn(CC(=O)Nc3ccc(Cl)cc3)c2-c2ccccc2S1(=O)=O [Compound 7a]
Ki [2, 13]: > 100 µM
Ki [3, 14]: 84.6 µM
Ki [4, 15]: > 100 µM
Ki [5, 16]: 90.2 µM

Structure (SMILES): C[C@@H]1[C@H](O)[C@@H](C)/C=C/C=C/C=C/C=C/C=C/C=C/C=C/[C@H](O[C@@H]2O[C@H](C)[C@@H](O)[C@H](N)[C@@H]2O)C[C@@H]2O[C@](O)(C[C@@H](O)C[C@@H](O)[C@H](O)CC[C@@H](O)C[C@@H](O)CC(=O)O[C@H]1C)C[C@H](O)[C@H]2C(=O)O [Amphotericin B, amphotericin B, reference compound]
percent survival at 25 µg/mL ([7]; ATCC90027, antibiotic control 25 μg/mL): 4.71%

Continued, in another order:

Ki [2, 13]: > 100 µM
Ki [3, 14]: > 100 µM
Ki [4, 15]: > 100 µM
Ki [5, 16]: > 100 µM
Structure (SMILES): CN1c2c(OCC(=O)Nc3ccc([N+](=O)[O-])cc3)nn(CC(=O)Nc3ccc([N+](=O)[O-])cc3)c2-c2ccccc2S1(=O)=O [Compound 7i]

MIC90 [8]: 16 µg/mL (≈ 38.2 µM)
MIC90 [9]: 16 µg/mL (≈ 38.2 µM)
MIC90 [10]: 16 µg/mL (≈ 38.2 µM)
Ki [2]: > 100 µM
Ki ([3]; Ki for targeted CAs, II): 90.9 µM
Ki ([4]; Ki for targeted CAs, IX): 72.9 µM
Ki ([5]; Ki for targeted CAs, XII): 77.4 µM
Structure (SMILES): CN1c2c(O)nn(CC(=O)Nc3cccc(Cl)c3)c2-c2ccccc2S1(=O)=O [Compound 7b]
percent survival of S. aureus at 125 µg/mL [6]: 37.2%
antibacterial activity against susceptible S. aureus (in words) [6]: significant antibacterial activity
percent survival at 125 µg/mL [1]: 95.3%
percent survival at 125 µg/mL [7]: 87%
viability at 48 h, 10 µM [11]: 88.9%
effect on HCT-116 cell viability (in words) [12]: no significant decrease in mammalian cell viability

MIC90 SA ([8]; 90% growth inhibition): 8 µg/mL (≈ 17.3 µM)
MIC90 [8]: 8 µg/mL (≈ 17.3 µM)
MIC90 [9]: 8 µg/mL (≈ 17.3 µM)
MIC90 MRSA [9]: 8 µg/mL (≈ 17.3 µM)
MIC90 [10]: 8 µg/mL (≈ 17.3 µM)
MIC90 MDRSA [10]: 8 µg/mL (≈ 17.3 µM)
Ki [2]: > 100 µM
Ki ([3]; Ki for targeted CAs, II): 95.2 µM
Ki ([4]; Ki for targeted CAs, IX): 90.8 µM
Ki ([5]; Ki for targeted CAs, XII): 91.7 µM
Structure (SMILES): CN1c2c(O)nn(CC(=O)Nc3ccc(Br)cc3)c2-c2ccccc2S1(=O)=O [Compound 7h]
percent survival of S. aureus at 125 µg/mL [6]: 16.7%
antibacterial activity against susceptible S. aureus (in words) [6]: significant antibacterial activity
percent survival at 125 µg/mL [1]: > 100%
percent survival at 125 µg/mL [7]: 65.1%
viability at 48 h, 10 µM [11]: > 100%
effect on HCT-116 cell viability (in words) [12]: no significant decrease in mammalian cell viability

Ki [2, 13]: > 100 µM
Ki [3, 14]: > 100 µM
Ki [4, 15]: > 100 µM
Ki [5, 16]: > 100 µM
Structure (SMILES): CN1c2c(OCC(=O)NC3CCCCC3)nn(CC(=O)NC3CCCCC3)c2-c2ccccc2S1(=O)=O [Compound 7n]
